Results from patent US7592326B2, “Method for stimulating the immune, inflammatory or neuroprotective response” (priority 2004, dated 2009).

Key:
S. aureus Newbould 305 = test: Mouse model of S. aureus-induced mastitis, prophylactic pre-treatment; type: in vivo; conditions: for reduction of the mean bacterial CFU in tissues compared to untreated control: lactating CD-1 mice, 10 h infection
Experimental: The well-characterized mouse model of S. aureus-induced mastitis (see Brouillette et al., 2005 for review) was used to evaluate the capacity of c-di-GMP to act as a prophylactic agent. S. aureus is a Gram-positive bacterial pathogen. The protocol used here is similar to that described in a previous study (Brouillette et al., 2005), except that the c-di-GMP molecule was administered before infection of mammary glands, instead of after, in order to evaluate its prophylactic capacity. […] For inoculation, 100 cfu of S. aureus Newbould 305 (ATCC 29740) were injected in each gland and the colonization allowed for 10 h. Raw bacterial cfu counts obtained after plating serial logarithmic dilutions of mammary gland homogenates were transformed in base-10 logarithm values. The experiment was repeated and data combined for a total of 9 mice (18 glands) per group. Since values passed the normality test, bacterial counts were analyzed for statistical significance using the One-way analysis of variance test combined with the Tukey post test (GraphPad Instat, version 3.06). The institutional ethics committee on animal experimentation of the Faculté des sciences of Université de Sherbrooke approved these experiments and were carried out following the guidelines of the Canadian Council on Animal Care.

Human immature DCs = test: Maturation of human monocyte-derived DCs (surface markers, flow cytometry); type: cell-based; conditions: 24 hours
Experimental: Buffy coats were obtained from healthy human volunteers and fractionated over Histopaque-1077. The peripheral blood mononuclear cells (PBMC) layer was recovered and erythrocyte-depleted by incubation in red blood cell lysis buffer for 5 minutes at room temperature. PBMCs were cultured in complete medium (RPMI 1640, 1% L-glutamine, 1% penicillin/streptomycin, and 10% low endotoxin FCS) for 2 hours in T75 flasks (Corning). Following incubation, nonadherent cells were removed by three washes with 1× PBS (Invitrogen, Carlsbad, Calif.). The remaining adherent cells were then cultured in complete medium supplemented with GM-CSF and IL-4 (50 ng/mL each). Human and murine IL-4 and GM-CSF were purchased from Peprotech (Rocky Hill, N.J.). On day 2 and day 4, the DC cultures received an additional dose of GM-CSF and IL-4 (50 ng/mL each). On day 5, non-adherent DC were harvested by gentle pipetting, counted, and plated in fresh medium containing GM-CSF and IL-4 (50 ng/mL each). […]
Surface expression of various markers was assessed using CellQuest analysis software on a FACScalibur (Becton-Dickinson) flow cytometer. Surface expression was determined using the following FITC- and PE-conjugated antibodies: CD86-FITC (Research Diagnostics), CCR7-PE (R&D Systems), CD80-FITC, CD83-FITC, HLA-DR-FITC (BD Pharmingen). The isotype control antibodies were used accordingly in all experiments and were purchased from Pharmingen. Human DC were incubated in 1% human AB serum/PBS and were incubated with rat anti-CD16/CD32 (BD Phamingen) to block non-specific binding. Total RNA was extracted using the RNeasy kit according to the manufacturer's protocol (Qiagen). […] Emitted fluorescence for each reaction was measured during the annealing/extension phase, and amplification plots were analyzed using the MX4000 software version 3.0 (Stratagene). Quantity values (i.e., copies) for gene expression were generated by comparison of the fluorescence generated by each sample with standard curves of known quantities. Next, the calculated number of copies was divided by the number of copies of the housekeeping gene GAPDH.

[1] = 200 nmol intramammary 12 h and 6 h prior to challenge, P<0.001

Structure (SMILES): Nc1nc(=O)c2ncn([C@@H]3OC4COP(=O)(O)O[C@H]5[C@@H](O)[C@H](n6cnc7c(=O)nc(N)[nH]c76)O[C@@H]5COP(=O)(O)OC4C3O)c2[nH]1 (stereo partly drawn) [c-di-GMP, Bis(3′→5′)-cyclic diguanylic acid]
- reduction of the mean bacterial CFU in tissues compared to untreated control (S. aureus Newbould 305; 50 nmol intramammary 12 h and 6 h prior to challenge, P<0.05): 1.5 log
- reduction in CFUs in tissues (S. aureus Newbould 305; [1]): 10,000 fold
- reduction of the mean bacterial CFU in tissues compared to untreated control (S. aureus Newbould 305; [1]): 3.8 log
- CD83 expression, net MFI (Human immature DCs; 200 uM c-di-GMP or LPS (positive control), untreated net MFI=4.89, FIG. 10A): 63.34
- expression of maturation markers CD80, CD86, CCR7, and MHC class II (Human immature DCs; 200 uM, FIG. 10C): increase
- concentration at which significant increases in surface CD83 begin (Human immature DCs; 5 to 500 uM, FIG. 10B): 32 µM
